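Method: 48-hour compound exposure of cells in 96-well plates, five concentrations, linear interpolation of endpoints. TGI: total growth inhibition.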
How the values were obtained:
Test in all cases: NCI anticancer screen, dose series, 48 h
[1] = test system: NCI-H23 lung
[2] = test system: EKVX NSCLC
[3] = test system: NCI-H226 lung
[4] = test system: IGROV1 ovarian
[5] = test system: NCI-H522 lung
[6] = test system: 786-0 renal
[7] = test system: RPMI-8226 leukemia
[8] = test system: NCI-H460 lung
[9] = test system: LOX IMVI melanoma
[10] = test system: MCF7 breast
[11] = test system: MOLT-4 leukemia
[12] = test system: ACHN renal
[13] = test system: SW-620 colon
[14] = test system: HOP-92 NSCLC
[15] = test system: HCC-2998 colon
[16] = test system: TK-10 renal
[17] = test system: MALME-3M melanoma
[18] = test system: SK-OV-3 ovarian
[19] = test system: SK-MEL-5 melanoma
[20] = test system: SF-539 CNS
[21] = test system: NCI/ADR-RES ovarian
[22] = test system: K-562 leukemia
[23] = test system: SK-MEL-2 melanoma
[24] = test system: SF-295 CNS
[25] = test system: MDA-N
[26] = test system: CCRF-CEM leukemia
[27] = test system: SN12C renal
[28] = test system: MDA-MB-435
[29] = test system: OVCAR-3 ovarian
[30] = test system: HT29 colon
[31] = test system: HCT-15 colon
[32] = test system: A549 NSCLC
[33] = test system: SF-268 CNS
[34] = test system: MDA-MB-231 breast
[35] = test system: OVCAR-4 ovarian
[36] = test system: DU-145 prostate
[37] = test system: RXF 393 renal
[38] = test system: HS 578T breast
[39] = test system: COLO 205 colon
[40] = test system: HOP-62 NSCLC
[41] = test system: M14 melanoma
[42] = test system: T-47D breast
[43] = test system: OVCAR-8 ovarian
[44] = test system: HL-60(TB) leukemia
[45] = test system: SK-MEL-28 melanoma
[46] = test system: SNB-75 CNS
[47] = test system: U251 CNS
[48] = test system: UACC-257 melanoma
[49] = test system: BT-549 breast
[50] = test system: PC-3 prostate
[51] = test system: OVCAR-5 ovarian
[52] = test system: A498 renal
[53] = test system: SR leukemia
[54] = test system: HCT-116 colon
[55] = test system: KM12 colon
[56] = test system: UACC-62 melanoma
[57] = test system: UO-31 renal
[58] = test system: SNB-19 CNS

## O=C1C=CC2(O[C@H](C3CCCCC3)[C@@H](C3CCCCC3)O2)C(SC(=O)c2ccccc2)C1 (stereo partly drawn)
[1]
  TGI: 8.93 µM
[2]
  TGI: 12.7 µM
[3]
  TGI: 1620 nM
[4]
  TGI: 9.1 µM
[5]
  TGI: 2230 nM
[6]
  TGI: 5.09 µM
[7]
  TGI: 2220 nM
[8]
  TGI: 17.6 µM
[9]
  TGI: 5.92 µM
[10]
  TGI: 5.08 µM
[11]
  TGI: 3.77 µM
[12]
  TGI: 6.43 µM
[13]
  TGI: 16.8 µM
[14]
  TGI: 16.8 µM
[15]
  TGI: 5.52 µM
[16]
  TGI: 5.62 µM
[17]
  TGI: 10.5 µM
[18]
  TGI: 33.5 µM
[19]
  TGI: 5.53 µM
[20]
  TGI: 11.6 µM
[21]
  TGI: 13.1 µM
[22]
  TGI: 4.73 µM
[23]
  TGI: 12.8 µM
[24]
  TGI: 14.5 µM
[25]
  TGI: 7.2 µM
[26]
  TGI: 5.87 µM
[27]
  TGI: 6.58 µM
[28]
  TGI: 5.29 µM
[29]
  TGI: 2040 nM
[30]
  TGI: 3.85 µM
[31]
  TGI: 9.47 µM
[32]
  TGI: 45.8 µM
[33]
  TGI: 5.89 µM
[34]
  TGI: 5.11 µM
[35]
  TGI: 4.01 µM
[36]
  TGI: 10.4 µM
[37]
  TGI: 2490 nM
[38]
  TGI: 10.9 µM
[39]
  TGI: 15 µM
[40]
  TGI: 9.57 µM
[41]
  TGI: 7.9 µM
[42]
  TGI: 1940 nM
[43]
  TGI: 13.9 µM
[44]
  TGI: 7.37 µM
[45]
  TGI: 3.15 µM
[46]
  TGI: 14.4 µM
[47]
  TGI: 6.86 µM
[48]
  TGI: 16.2 µM
[49]
  TGI: 8.28 µM
[50]
  TGI: 7.43 µM
[51]
  TGI: 6.32 µM
[52]
  TGI: 18.4 µM
[53]
  TGI: 2360 nM
[54]
  TGI: 1750 nM
[55]
  TGI: 18.3 µM
[56]
  TGI: 8.57 µM
[57]
  TGI: 4.31 µM
[58]
  TGI: 6.56 µM

Reference: PubChem BioAssay (NCI)
